Measured values as given in PMC4632126, “High specific selectivity and Membrane-Active Mechanism of the synthetic centrosymmetric α-helical peptides with Gly-Gly pairs” (Scientific Reports, 2015).
Values after ≈ are worked out from the molar mass of the structure shown.

Tests used:
E. coli ATCC 25922 [1] = assay type: cell-based, Escherichia coli; conditions: E. coli 25922; lowest concentration preventing more than 99.9% growth; 37 °C, 5 h; representative of three trials
Description: (§1) Minimal bactericidal concentrations (MBCs) were measured using the method which has been adopted from National Committee for Clinical Laboratory Standards (NCCLS), with modifications. In short, 50 μL peptide solutions were pipetted into microtiter plates at various concentrations ranging from 1 to 128 μM. Freshly grown bacteria were added to the each well in a density of 0.5–1 × 10^6 CFUmL^−1. Microtiter plated was incubated at 37 °C for 5 h. Fifty microliters of each incubation mixture was further serially diluted (up to 10^−3 of the initial bacterial concentration), transferred on agar plates and incubated overnight. On the following day, the number of colonies was evaluated and the initial CFU/well retrospectively calculated. The minimum bactericidal concentrations (μM) were determined as the lowest concentration of the peptides that prevented more than 99.9% bacteria growth.

E. coli UB1005 = assay type: cell-based, Escherichia coli; conditions: E. coli 1005; lowest concentration preventing more than 99.9% growth; 37 °C, 5 h; representative of three trials
Description: as §1

S. typhimurium ATCC14028 = assay type: cell-based, Salmonella typhimurium; conditions: S. typhimurium 14028; lowest concentration preventing more than 99.9% growth; 37 °C, 5 h; representative of three trials
Description: as §1

S. aureus ATCC29213 = assay type: cell-based, Staphylococcus aureus; conditions: S. aureus 29213; lowest concentration preventing more than 99.9% growth; 37 °C, 5 h; representative of three trials
Description: as §1

[2] = system: 3 gram-negative strains tested; assay: Geometric mean of MBCs and therapeutic index, gram-negative strains; assay type: cell-based; conditions: 3 gram-negative strains; >128 counted as 256 μM
Description: as §1, with “In” for “Minimal bactericidal concentrations (MBCs) were measured using the method which has been adopted from National Committee for Clinical Laboratory Standards (NCCLS), with modifications. In”
(§2) The therapeutic index (TI) is calculated by the ration of the minimum hemolytic concentration (MHC) to the geometric mean of the MBC (GM) to evaluate cell selectivity of peptides.

[3] = system: 3 gram-positive strains tested; conditions: 3 gram-positive strains; >128 counted as 256 μM
Description: as §1, with “In” for “Minimal bactericidal concentrations (MBCs) were measured using the method which has been adopted from National Committee for Clinical Laboratory Standards (NCCLS), with modifications. In”
as §2

[4] = system: all of the 6 strains tested; assay: Geometric mean of MBCs and therapeutic index, all strains; assay type: cell-based; conditions: all 6 strains; >128 counted as 256 μM
Description: as §1, with “In” for “Minimal bactericidal concentrations (MBCs) were measured using the method which has been adopted from National Committee for Clinical Laboratory Standards (NCCLS), with modifications. In”
as §2

E. coli ATCC 25922 [5] = assay: Flow cytometry, membrane integrity by PI staining; assay type: cell-based, Escherichia coli; conditions: peptide at 1 × MBC, PI 10 μg mL^−1, 30 min at 4 °C
Description: The membrane damage was determined by flow cytometry. Briefly, E. coli ATCC 25922 was grown to mid-log phase in MHB at 37 °C, harvested by centrifugation at 1,000 × g for 10 min, washed thrice with PBS and diluted to 10^5 CFU mL^−1 in the same buffer. The peptides at the concentrations of 1 × MBCs were incubated with the bacterial suspension at a fixed PI concentration of 10 μg mL^−1 for 30 min at 4 °C, and followed by the removal of the unbound dye through washing with an excess of PBS. A Fluorescence Activated Cell Sorter (FACS) flow cytometer (Becton–Dickinson, USA) was used to obtain the data with a laser excitation wavelength of 488 nm.

CC[C@H](C)[C@H](NC(=O)CN)C(=O)NCC(=O)N[C@@H](C)C(=O)N[C@H](C(=O)N[C@@H](CC(C)C)C(=O)N[C@@H](CCCCN)C(=O)N[C@H](C(=O)N[C@@H](CC(C)C)C(=O)N[C@H](C(=O)N[C@H](C(=O)NCC(=O)N[C@@H](CC(C)C)C(=O)N1CCC[C@H]1C(=O)N[C@@H](C)C(=O)N[C@@H](CC(C)C)C(=O)N[C@H](C(=O)N[C@@H](CO)C(=O)N[C@@H](Cc1c[nH]c2ccccc12)C(=O)N[C@H](C(=O)N[C@@H](CCCCN)C(=O)N[C@@H](CCCNC(=N)N)C(=O)N[C@@H](CCCCN)C(=O)N[C@@H](CCCNC(=N)N)C(=O)N[C@@H](CCC(N)=O)C(=O)N[C@@H](CCC(N)=O)C(N)=O)[C@@H](C)CC)[C@@H](C)CC)[C@@H](C)O)[C@@H](C)O)C(C)C)C(C)C [Melittin, reference compound]
Minimum bactericidal concentration (E. coli ATCC 25922 [1]): 2 µM (≈ 5.69 µg/mL) | Minimum bactericidal concentration (E. coli UB1005): 2 µM (≈ 5.69 µg/mL) | Minimum bactericidal concentration (S. typhimurium ATCC14028): 2 µM (≈ 5.69 µg/mL) | Minimum bactericidal concentration (S. aureus ATCC29213): 8 µM (≈ 22.8 µg/mL) | GM (geometric mean of MBCs), Gram (−) [2]: 2 µM | GM (geometric mean of MBCs), Gram (+) [3]: 2 µM | GM (geometric mean of MBCs), Gram (+, −) [4]: 2 µM | percentage of PI-positive cells (E. coli ATCC 25922 [5]): 99.0%
